Square brackets hold non-standard residues; d marks the D form. Peptide text beside a SMILES is read from it. * marks the point of attachment. N(4-Sulfamoylphenethyl)Gly = NS(=O)(=O)c1ccc(CCNCC(=O)O)cc1; Gly(N-piperonyl) = O=C(O)CNCc1ccc2c(c1)OCO2; hSer(lactone) = O=C1OCC[C@@H]1N*; NFurfurylGly = O=C(O)CNCc1ccco1; NAllylGly = C=CCNCC(=O)O

For one assay, the target named is M2 monoclonal anti-flag antibody. The assay is described as follows: Microarray binding of spotted hits titrated with anti-FLAG antibody. Details: species or system mouse. The conditions noted are these: apparent KD from microarray binding curves with decreasing anti-FLAG antibody concentrations; NA = spot not bound by anti-FLAG antibody. As to the method: (§1) A total of 16 copies of each array of 100 compounds (the hits and various controls) were spotted onto each microscope slide. Each array, isolated by applying a Whatman Fast Frame to the slide, was then incubated for 2 hr with either anti-Myc antibody or various concentrations of anti-FLAG antibody. After washing, the amount of antibody captured at each spot was quantified by subsequent hybridization with fluorescently labeled secondary antibody, another wash, drying, and scanning. […] No binding of the anti-FLAG antibody to the Myc peptide was observed, nor was binding of the anti-Myc antibody to any of the hits or the FLAG peptide.
Microarray Spotting, Hybridization, and Data Analysis. Contents of the 384-well plates were printed onto maleimide-coated glass slides with a NanoPrint LM 360 (TeleChem International Inc., Sunnyvale, Calif.) with MP946 Micro Spotting Pins. A 10% ethanol (EM-AX007309; Midwest Grain Products) and water mixture was used to wash the pins before printing and after spotting of each compound. Multiple wash/sonicate/dry cycles were used between each sample pick-up and print cycle. Spots were printed on the slide to fit within the wells of a 16-well Whatman Fast Frame (Whatman no. 10486003), which allows 16 isolated hybridization events on a single slide. Slides were left in 50% humidity for 12 hr […]. After printing, the humidifier was turned off and the slides were left for at least 12 hr before free maleimide groups were blocked with 2% β-mercaptoethanol in DMF for 1 hr by placing the slides in glass slide holders inside of glass containers on a shaker in the chemical hood. Slides were washed sequentially with DMF for 30 min, tetrahydrofuran for 30 min, DMF for 30 min, acetonitrile thrice for 20 min, isopropanol thrice for 20 min, 13 TBST once for 20 min, then 0.13 TBST once for 20 min. Washed slides were spun dry for 5 min at 2000 rpm.
Dry slides were placed inside the Whatman Fast Frame following the provided instructions, and each of the 16 wells per slide was blocked with 100 μl of StartingBlock (Fisher) for 1 hr at RT with a multichannel pipetteman. Wells were drained and washed once with […] TBST. TBST was drained one well at a time before adding 100 μl of appropriate concentrations of protein(s) diluted in 1:1 TBST:StartingBlock. The FastFrame was placed on wet paper towels inside of a glass cake pan, which was sealed with Glad Press'n Seal and placed on an orbital shaker for 2-4 hr at RT. Each well was washed with TBST six times before adding 4 μg/ml Alexa647 goat anti-mouse IgG secondary antibodies diluted in 1:1 TBST:StartingBlock for 1 hr at RT. Slides were washed five times for 3 min with 13 TBST, then once with 0.13 TBST, spun dry at 2000 rpm, then scanned using a GenePix Autoloader 4200AL Scanner (Molecular Devices, Sunnyvale Calif.). Slides were scanned with a power of 1003 and photomultiplier tube setting of 5003-6003. Gal files were created and used to determine fluorescence intensity of each of the spots with GenePixPro6.0. Gal files were aligned manually, then automatic spotfinding followed by manual correction of spots performed for each of the scanned slides. GPR files were created and median fluorescence-background fluorescence values for each of the spots were cut and pasted in Excel and arranged (using simple macros) to simplify transferring results to GraphPad Prism 5.0 software for binding curve analyses.
`C[C@@H](NC(=O)[C@@H](Cc1ccc(O)cc1)NC(=O)[C@@H](CCCCN)NC(=O)[C@H](N)CC(N)=O)C(=O)N[C@H](CC(=O)O)C(=O)N[C@H](CC(=O)O)C(=O)N(CC(=O)N[C@H]1CCOC1=O)Cc1ccco1` [Spot A7] (H-[dN][dK][dY][dA][dD][dD][NFurfurylGly]-{hSer(lactone)}; C-terminus assumed): the Kd was 5 nM.
Take `C=CCNCC(=O)N[C@@H](C(=O)N[C@H](CCCCN)C(=O)N[C@H](Cc1ccc(O)cc1)C(=O)N[C@H](CC(=O)O)C(=O)N[C@H](CC(=O)O)C(=O)N(CC(=O)N[C@H]1CCOC1=O)Cc1ccco1)[C@H](C)O` [Spot B1] (H-[NAllylGly][dT][dK][dY][dD][dD][NFurfurylGly]-{hSer(lactone)}): the Kd was 3 nM.
Still for that read-out and setting: in the case of `N=C(N)NCCC[C@@H](NC(=O)[C@@H](Cc1ccc(O)cc1)NC(=O)[C@@H](CCCCN)NC(=O)[C@H](N)CCC(=O)O)C(=O)N[C@H](Cc1ccc(O)cc1)C(=O)N[C@H](Cc1c[nH]c2ccccc12)C(=O)N(CC(=O)N[C@H]1CCOC1=O)Cc1ccco1` [Spot B4] (H-[dE][dK][dY][dR][dY][dW][NFurfurylGly]-{hSer(lactone)}; C-terminus assumed) it was 7 nM.
Same read-out and setting: as for `CC(C)C[C@@H](N)C(=O)N[C@H](CC(=O)O)C(=O)N[C@H](CCCCN)C(=O)N[C@H](Cc1ccc(O)cc1)C(=O)N[C@H](CCC(=O)O)C(=O)N[C@H](Cc1c[nH]c2ccccc12)C(=O)N(CC(=O)N[C@H]1CCOC1=O)Cc1ccco1` [Spot B7] (H-[dL][dD][dK][dY][dE][dW][NFurfurylGly]-{hSer(lactone)}; C-terminus assumed), the figure is 6 nM; as for `NCCCC[C@@H](NC(=O)[C@H](N)CC(=O)O)C(=O)N[C@H](Cc1ccc(O)cc1)C(=O)N[C@H](Cc1ccccc1)C(=O)N[C@H](CO)C(=O)N(CCc1ccc(S(N)(=O)=O)cc1)CC(=O)N(CC(=O)N[C@H]1CCOC1=O)Cc1ccco1` [Spot B8] (H-[dD][dK][dY][dF][dS][N(4-Sulfamoylphenethyl)Gly][NFurfurylGly]-{hSer(lactone)}), 9 nM; as for `NCCCC[C@@H](NC(=O)[C@@H](CO)NC(=O)[C@H](N)CCC(=O)O)C(=O)N[C@H](Cc1ccc(O)cc1)C(=O)N[C@H](CC(=O)O)C(=O)N[C@H](Cc1ccc(O)cc1)C(=O)N(CC(=O)N[C@H]1CCOC1=O)Cc1ccco1` [Spot B9] (H-[dE][dS][dK][dY][dD][dY][NFurfurylGly]-{hSer(lactone)}; C-terminus assumed), 2 nM.
Take `NCCCC[C@@H](N)C(=O)N[C@H](Cc1ccc(O)cc1)C(=O)N[C@H](Cc1ccc(O)cc1)C(=O)N[C@H](CC(N)=O)C(=O)N[C@H](CC(=O)O)C(=O)N(CC(=O)N(CC(=O)N[C@H]1CCOC1=O)Cc1ccco1)Cc1ccc2c(c1)OCO2` [Spot D5] (H-[dK][dY][dY][dN][dD][Gly(N-piperonyl)][NFurfurylGly]-{hSer(lactone)}): the Kd is 7 nM.
Same read-out and setting: as for `C=CCN(CC(=O)N(CC(=O)N[C@H]1CCOC1=O)Cc1ccco1)C(=O)[C@@H](CC(=O)O)NC(=O)CNC(=O)CN(Cc1ccc2c(c1)OCO2)C(=O)[C@@H](Cc1ccc(O)cc1)NC(=O)[C@H](N)CCCCN` [Spot E4] (H-[dK][dY][Gly(N-piperonyl)]G[dD][NAllylGly][NFurfurylGly]-{hSer(lactone)}), the figure is 8 nM; as for `C[C@@H](NC(=O)[C@@H](Cc1ccc(O)cc1)NC(=O)[C@@H](CCCCN)NC(=O)[C@@H](Cc1ccccc1)NC(=O)[C@H](N)CC(=O)O)C(=O)N[C@H](CCC(=O)O)C(=O)N(CC(=O)N[C@H]1CCOC1=O)Cc1ccco1` [Spot E8] (H-[dD][dF][dK][dY][dA][dE][NFurfurylGly]-{hSer(lactone)}; C-terminus assumed), 9 nM.
Regarding `NCCCC[C@@H](N)C(=O)N[C@H](Cc1ccc(O)cc1)C(=O)N[C@H](CCC(=O)O)C(=O)N[C@H](Cc1ccc(O)cc1)C(=O)N[C@H](CCC(=O)O)C(=O)N[C@H](Cc1ccc(O)cc1)C(=O)N(CC(=O)N[C@H]1CCOC1=O)Cc1ccco1` [Spot H1] (H-[dK][dY][dE][dY][dE][dY][NFurfurylGly]-{hSer(lactone)}; C-terminus assumed), the Kd stood at 6 nM.
The same measure, in the same setting: as for `NCCCC[C@@H](N)C(=O)N[C@H](Cc1ccc(O)cc1)C(=O)N[C@H](CC(=O)O)C(=O)N(CCc1ccc(S(N)(=O)=O)cc1)CC(=O)N(CCc1ccc(S(N)(=O)=O)cc1)CC(=O)N[C@H](CC(=O)O)C(=O)N(CC(=O)N[C@H]1CCOC1=O)Cc1ccco1` [Spot H2] (H-[dK][dY][dD][N(4-Sulfamoylphenethyl)Gly][N(4-Sulfamoylphenethyl)Gly][dD][NFurfurylGly]-{hSer(lactone)}), the figure is 5 nM.
As to `NCCCC[C@@H](N)C(=O)N[C@H](Cc1ccc(O)cc1)C(=O)N[C@H](CC(=O)O)C(=O)N[C@H](Cc1c[nH]c2ccccc12)C(=O)N[C@H](CCC(=O)O)C(=O)NCC(=O)N(CC(=O)N[C@H]1CCOC1=O)Cc1ccco1` [Spot H6] (H-[dK][dY][dD][dW][dE]G[NFurfurylGly]-{hSer(lactone)}; C-terminus assumed), the Kd worked out at 11 nM.
Same read-out and setting: as for `NCCCC[C@@H](N)C(=O)N[C@H](Cc1ccc(O)cc1)C(=O)N[C@H](Cc1ccc(O)cc1)C(=O)N[C@H](CCC(=O)O)C(=O)N[C@H](CC(N)=O)C(=O)N(CC(=O)N(CC(=O)N[C@H]1CCOC1=O)Cc1ccco1)Cc1ccc2c(c1)OCO2` [Spot H7] (H-[dK][dY][dY][dE][dN][Gly(N-piperonyl)][NFurfurylGly]-{hSer(lactone)}), the figure is 9 nM; as for `NCCCC[C@@H](NC(=O)[C@@H](CC(=O)O)NC(=O)[C@H](N)Cc1c[nH]c2ccccc12)C(=O)N[C@H](Cc1ccc(O)cc1)C(=O)N[C@H](Cc1c[nH]cn1)C(=O)N(CCc1ccc(S(N)(=O)=O)cc1)CC(=O)N(CC(=O)N[C@H]1CCOC1=O)Cc1ccco1` [Spot H8] (H-[dW][dD][dK][dY][dH][N(4-Sulfamoylphenethyl)Gly][NFurfurylGly]-{hSer(lactone)}), 2 nM.
For `C=CCN(CC(=O)N[C@H](CCC(=O)O)C(=O)N[C@H](CC(C)C)C(=O)N(CC(=O)N[C@H]1CCOC1=O)Cc1ccco1)C(=O)[C@@H](CC(=O)O)NC(=O)[C@@H](Cc1ccc(O)cc1)NC(=O)[C@H](N)CCCCN` [Spot H9] (H-[dK][dY][dD][NAllylGly][dE][dL][NFurfurylGly]-{hSer(lactone)}; C-terminus assumed), the Kd turned out to be 4 nM.

The same assay, now with this note: microarray, fluorescently labeled secondary antibody.
Regarding “N-Asp-Tyr-Lys-Asp-Asp-Asp-Asp-Lys-C [FLAG peptide]”, the “binding of anti-FLAG antibody to spotted compound” value is “binds”.

The test system of the next assay is anti-Myc antibody. The assay is described as follows: Microarray hybridization of spotted compounds with anti-Myc antibody. The class given is binding. As to conditions: fluorescently labeled secondary antibody. As for the experimental part: as §1
Microarray Spotting, Hybridization, and Data Analysis. […]
Dry slides were placed inside the Whatman Fast Frame following the provided instructions, and each of the 16 wells per slide was blocked with 100 μl of StartingBlock (Fisher) for 1 hr at RT with a multichannel pipetteman. […] Gal files were created and used to determine fluorescence intensity of each of the spots with GenePixPro6.0. […] GPR files were created and median fluorescence-background fluorescence values for each of the spots were cut and pasted in Excel and arranged (using simple macros) to simplify transferring results to GraphPad Prism 5.0 software for binding curve analyses.
Consider “N-Asp-Tyr-Lys-Asp-Asp-Asp-Asp-Lys-C [FLAG peptide]”, for which the “binding of anti-Myc antibody to spotted compound” value is “No binding”.

For the next assay, the system named is anti-FLAG antibody. The assay is described as follows: Competition experiment: anti-FLAG antibody pre-incubated with excess soluble peptide before hybridization to the array. The class given is binding, mouse. As to conditions: antibody first incubated with excess peptide. As to the method:
To address if the higher affinity hits bind to anti-FLAG antibody in the antigen-binding site, the inventors carried out a competition experiment in which the anti-FLAG antibody was first incubated with an excess of FLAG peptide or, as a control, the Myc peptide, before hybridization to the array.
On to “N-Asp-Tyr-Lys-Asp-Asp-Asp-Asp-Lys-C [FLAG peptide]”, for which the “effect of excess soluble peptide on binding of anti-FLAG antibody to the molecules on the microarray” value is “abrogated binding”.
